# Source: ChEMBL document CHEMBL5143732 (J Med Chem, 2022)
# Columns and labels:
# [1] = Hemolytic activity in human RBC measured after 1 hr; assay type: toxicity, cell-based, Erythrocyte; conditions: red blood cells (erythrocytes)
# [2] = test system: Candida tropicalis; assay: Antifungal activity against Candida tropicalis assessed as inhibition of fungal growth measured after 48 hrs by CLSI based agar dilution method; assay type: functional
# [3] = test system: Pichia kudriavzevii; assay: Antifungal activity against Candida krusei assessed as inhibition of fungal growth measured after 48 hrs by CLSI based agar dilution method; assay type: functional
# [4] = test system: Cryptococcus neoformans; assay: Antifungal activity against Cryptococcus neoformans ATCC 32609 assessed as inhibition of fungal growth measured after 48 hrs by CLSI based agar dilution method; assay type: functional
# [5] = test system: Candida albicans; assay: Antifungal activity against Candida albicans assessed as inhibition of fungal growth measured after 48 hrs by CLSI based agar dilution method; assay type: functional
# [6] = test system: Pichia kudriavzevii; assay: Antifungal activity against Candida krusei ATCC 6258 assessed as inhibition of fungal growth measured after 48 hrs by CLSI based agar dilution method; assay type: functional
# [7] = test system: Candida parapsilosis; assay: Antifungal activity against Candida parapsilosis assessed as inhibition of fungal growth measured after 48 hrs by CLSI based agar dilution method; assay type: functional; conditions: Lodderomyces parapsilosis
SMILES,MIC [2] [µg/mL],MIC [3] [µg/mL],MIC [4] [µg/mL],MIC [5] [µg/mL],MIC [6] [µg/mL],MIC [7] [µg/mL],HC50 at 1 h [1] [µM]
CCOC(=O)NNC(=O)[C@H]1[C@@H]2C[C@@H](O[C@@H]3O[C@H](C)[C@@H](O)[C@H](N)[C@@H]3O)/C=C/C=C/C=C/C=C/C=C/C=C/C=C/[C@H](C)[C@@H](O)[C@@H](C)[C@H](C)OC(=O)C[C@H](O)C[C@H](O)CC[C@@H](O)[C@H](O)C[C@H](O)C[C@](O)(C[C@@H]1O)O2,2,0.25,0.06,0.25,0.5,2,6.29
CNCC(=O)N[C@@H]1[C@H](O)[C@H](O[C@H]2/C=C/C=C/C=C/C=C/C=C/C=C/C=C/[C@H](C)[C@@H](O)[C@@H](C)[C@H](C)OC(=O)C[C@H](O)C[C@H](O)CC[C@@H](O)[C@H](O)C[C@H](O)C[C@]3(O)C[C@H](O)[C@@H](C(=O)N(C)CCCO)[C@H](C2)O3)O[C@H](C)[C@H]1O,4,0.5,1,0.06,4,4,9.52
COC(=O)NNC(=O)[C@H]1[C@@H]2C[C@@H](O[C@@H]3O[C@H](C)[C@@H](O)[C@H](NC(=O)CCN)[C@@H]3O)/C=C/C=C/C=C/C=C/C=C/C=C/C=C/[C@H](C)[C@@H](O)[C@@H](C)[C@H](C)OC(=O)C[C@H](O)C[C@H](O)CC[C@@H](O)[C@H](O)C[C@H](O)C[C@](O)(C[C@@H]1O)O2,8,0.5,0.25,0.25,8,8,
C[C@@H]1[C@H](O)[C@@H](C)/C=C/C=C/C=C/C=C/C=C/C=C/C=C/[C@H](O[C@@H]2O[C@H](C)[C@@H](O)[C@H](NC(=O)CN)[C@@H]2O)C[C@@H]2O[C@](O)(C[C@@H](O)C[C@@H](O)[C@H](O)CC[C@@H](O)C[C@@H](O)CC(=O)O[C@H]1C)C[C@H](O)[C@H]2C(=O)NCCCO,2,0.25,0.25,0.5,0.25,0.5,7.86
CNCC(=O)N[C@@H]1[C@H](O)[C@H](O[C@H]2/C=C/C=C/C=C/C=C/C=C/C=C/C=C/[C@H](C)[C@@H](O)[C@@H](C)[C@H](C)OC(=O)C[C@H](O)C[C@H](O)CC[C@@H](O)[C@H](O)C[C@H](O)C[C@]3(O)C[C@H](O)[C@@H](C(=O)NCCN(C)C)[C@H](C2)O3)O[C@H](C)[C@H]1O,4,2,0.5,2,16,2,

# Now those with a lower MIC [2], led by results:
MIC [2] [µg/mL],MIC [3] [µg/mL],MIC [4] [µg/mL],MIC [5] [µg/mL],MIC [6] [µg/mL],MIC [7] [µg/mL],SMILES,HC50 at 1 h [1] [µM]
1,1,0.5,1,2,0.25,CNCC(=O)N[C@@H]1[C@H](O)[C@H](O[C@H]2/C=C/C=C/C=C/C=C/C=C/C=C/C=C/[C@H](C)[C@@H](O)[C@@H](C)[C@H](C)OC(=O)C[C@H](O)C[C@H](O)CC[C@@H](O)[C@H](O)C[C@H](O)C[C@]3(O)C[C@H](O)[C@@H](C(=O)N4CCN(CC(O)CO)CC4)[C@H](C2)O3)O[C@H](C)[C@H]1O (stereo partly specified),9.06
1,0.125,0.5,0.125,2,4,CNCC(=O)N[C@@H]1[C@H](O)[C@H](O[C@H]2/C=C/C=C/C=C/C=C/C=C/C=C/C=C/[C@H](C)[C@@H](O)[C@@H](C)[C@H](C)OC(=O)C[C@H](O)C[C@H](O)CC[C@@H](O)[C@H](O)C[C@H](O)C[C@]3(O)C[C@H](O)[C@@H](C(=O)NNC(=O)OC)[C@H](C2)O3)O[C@H](C)[C@H]1O,
1,1,0.5,0.5,2,1,CNCC(=O)N[C@@H]1[C@H](O)[C@H](O[C@H]2/C=C/C=C/C=C/C=C/C=C/C=C/C=C/[C@H](C)[C@@H](O)[C@@H](C)[C@H](C)OC(=O)C[C@H](O)C[C@H](O)CC[C@@H](O)[C@H](O)C[C@H](O)C[C@]3(O)C[C@H](O)[C@@H](C(=O)N(C)CCO)[C@H](C2)O3)O[C@H](C)[C@H]1O,14.8
0.5,0.015,0.125,0.015,0.25,0.5,COC(=O)NNC(=O)[C@H]1[C@@H]2C[C@@H](O[C@@H]3O[C@H](C)[C@@H](O)[C@H](N)[C@@H]3O)/C=C/C=C/C=C/C=C/C=C/C=C/C=C/[C@H](C)[C@@H](O)[C@@H](C)[C@H](C)OC(=O)C[C@H](O)C[C@H](O)CC[C@@H](O)[C@H](O)C[C@H](O)C[C@](O)(C[C@@H]1O)O2,5.69
0.25,2,0.5,0.5,16,2,C[C@@H]1[C@H](O)[C@@H](C)/C=C/C=C/C=C/C=C/C=C/C=C/C=C/[C@H](O[C@@H]2O[C@H](C)[C@@H](O)[C@H](NC(=O)COCCN)[C@@H]2O)C[C@@H]2O[C@](O)(C[C@@H](O)C[C@@H](O)[C@H](O)CC[C@@H](O)C[C@@H](O)CC(=O)O[C@H]1C)C[C@H](O)[C@H]2C(=O)N1CCN(CCO)CC1,
